Data taken from patent publication US20080070851A1, “METHOD FOR THE EXTRACTION OF […] ACTIVE PRODUCTS FROM SPERMATOPHYTE PLANTS, PRODUCTS THUS OBTAINED AND THEIR USE IN THE MEDICAL FIELD, IN […] AS SUBSTANCES WITH IMMUNOMODULATING ACTIVITY” (Institudo Agrario Di S. Michele All'Adige, priority 2000, published 2008).
Values belong to the molecule of their own block, whether it stands above or below them.

Tests used:
[1] = stability of the active agent in culture medium (HPLC quantification); assay type: physicochemical; conditions: for halving time in culture medium: culture medium of ex. 10; for amount still present at the end of the test: culture medium of ex. 10, 72 h
Text: The instrumental conditions are the same as those described above for viniferine. The coefficient of molar extinction of both glucosides is almost the same as the one of the corresponding aglycones, so that they can be added as such after carrying out a correction for molecular weights (Mattivi et al. Isolation, characterization, and evolution in red wine vinification of resveratrol monomers, J. Agric. Food Chem., 1995, 43, 7, 1820-1823).
Zeitschdift fur Lebensmittel-Untersuchung und Forschung, 1993, 196, 522-525. In addition to what is contained in the aforesaid document, it has been verified that the method is suitable for all monomer stilbenes, both free and glucosides, and that the eluted fraction of ethyl acetate can be dried under a light flow of nitrogen, in case it is necessary to carry out the exchange in another solvent and/or to further reduce the limits of quantification.
Said techniques can be used for instance to control the stability of the active agent in culture mediums, and therefore to support in vitro experimental models which are going to be described in the following examples. For instance, the culture for means described in ex.

[2] = tested on: CD8+ T cells activated with anti-CD3/CD28; experiment: cytofluorometric analysis of intracytoplasmatic cytokine levels, CD8+ T cells; assay type: cell-based, human
Text: (§1) Mononucleated cells of human peripheral blood (PBMC) deriving from healthy subjects have been obtained by separation on gradient (Ficoll-Hypaque) of cells deriving from buffy coat.
(§2) In vitro production of cytokines induced by activation with monoclonal anti-CD3 antibody carried out by the various T cell underpopulations in PBMC has been evaluated by means of a simultaneous cytofluorometric determination of the intracytoplasmatic cytokine content and of the expression of surface antigens in every single cell. By using said method it has been possible to evaluate the production of cytokines by single cell under-populations without previously physically separating them, and therefore in presence of the interactions in the production of cytokines which take place in physiological systems. The execution of said method is made possible by the use of saponin as reversible permeabilizing agent of cell membrane. In short, PBMC have been resuspended in a concentration of 1×10^6/ml, activated by treatment with anti-CD3 (10 ng/ml) and incubated with various doses of resveratrol. After 3 days of culture at 37° C. in a CO2 incubator, the cells have been treated with anti-CD28 (2 ng/ml) and with resveratrol in the same doses previously used. After further 3 days of treatment, the cells have been incubated with a fluorescent monoclonal antibody specific for a surface antigen (CD4 or CD8), resuspended in a medium with the addition of 0.3% saponin, and marked with an optimal dose of a mixture of anti-cytokine monoclonal antibodies conjugated with various fluorochromes. The samples thus treated have then undergone cytofluorometric analysis using a cytofluorometer FACscan (BD).
Mononucleated cells of human peripheral blood (PBMC) have been activated by incubation with anti-CD3+ anti-CD28 and then incubated with different doses of resveratrol (or DMSO as control) as described above. Non-activated cells deriving from the same buffy coat have been used as control. The percentage of T lymphocytes CD4+ and CD8+ positive for IL2, IL4 and IFN-γ has then been analyzed by means of flow cytofluorometry. […] The activity peak varies according to the examined cytokine, and precisely: 1.25-2.5 for IFN-γ (FIG. 1A), 0.625 for IL2 (FIG. 1B) and 2.5 for IL4 (FIG. 1C).

[3] = tested on: CD4+ T cells activated with anti-CD3/CD28; experiment: cytofluorometric analysis of intracytoplasmatic cytokine levels, CD4+ T cells; assay type: cell-based, human
Text: as §1, §2
Mononucleated cells of human peripheral blood (PBMC) have been activated by incubation with anti-CD3+ anti-CD28 and then incubated with different doses of resveratrol (or DMSO as control) as described above. Non-activated cells deriving from the same buffy coat have been used as control. The percentage of T lymphocytes CD4+ and CD8+ positive for IL2, IL4 and IFN-γ has then been analyzed by means of flow cytofluorometry. […]

[4] = tested on: lymphocytes activated with anti-CD3/CD28; experiment: cell proliferation (Coulter count) and DNA synthesis (BrdU incorporation); assay type: cell-based, human
Text: (§3) Mononucleated cells of human peripheral blood (PBMC) deriving from healthy subjects have been obtained by separation on gradient (Ficoll-Hypaque) of cells deriving from buffy coat. Cell replication has been evaluated by a cellular count carried out using a Coulter Counter. DNA synthesis has been measured by the test of incorporation of bromodeoxyuridine (BrdU) evaluated by flow cytometry using a cytometer FACscan (Becton-Dickinson). Mononucleated cells of human peripheral blood (PBMC) have been activated by incubation with anti-CD3+ anti-CD28 and then incubated with different doses of resveratrol (or DMSO as control) as described above. Non-activated cells deriving from the same buffy coat have been used as control.

[5] = tested on: lymphocytes activated with anti-CD3/CD28; experiment: apoptosis of activated lymphocytes; assay type: cell-based, human
Text: as §1
PBMC resuspended in a concentration of 1×10^6/ml have been fixed in acetone/methanol 1:4, treated with 100 KU/ml of RNase and marked with propydium iodide (50 mcg/ml). The cells have then been analyzed by means of flow cytofluorometry using a cytometer FACscan.
PBMC resuspended in a concentration of 1×10^6/ml have been fixed in 4% paraformaldehyde, treated with 100 KU/ml of RNase and marked with propydium iodide. The cells have then been analyzed by means of observation with a confocal microscope (LEIKA TCS 4D).
Mononucleated cells of human peripheral blood (PBMC) have been activated by incubation with anti-CD3+ anti-CD28 and then incubated with different doses of resveratrol (or DMSO as control) as described above. Non-activated cells deriving from the same buffy coat have been used as control.

[6] = tested on: lymphocytes activated with anti-CD3/CD28; experiment: cell mortality of activated lymphocytes; assay type: cell-based, human
Protocol: as §3, with “mortality” for “replication”, “in trypan blue and/or” for “carried out using a Coulter Counter. DNA synthesis has been measured by the test of incorporation of bromodeoxyuridine (BrdU) evaluated”, “(Becton-Dickinson), determining the vitality of unfixed cells which have been marked with propydium iodide (PI).” for “(Becton-Dickinson).”

[7] = tested on: human erythroleukemic line K 562; experiment: natural killer (NK) activity of PBMC, 51Cr release; assay type: cell-based; conditions: 18 h incubation
Protocol: as §1
PBMC in a concentration of 2×10^6 cells/ml have been treated in vitro with different doses of resveratrol for 18 h. At the end of the incubation the cells have been tested for their natural cytotoxic activity (NK) against the human erythroleukemic line K 562. The cytotoxic activity of the effect-producing cells incubated for 4 hours at 37° C. with K562 has been determined using a cytotoxicity standard test based on the release of ^51Cr by target cells.
(§4) Mononucleated cells of human peripheral blood (PBMC) have been incubated for 18 h with resveratrol in a concentration of 0.625, 1.25, 2.5, 5, 10 and 20 mcg/ml. At the end of the incubation the cells have been tested for their natural cytotoxic activity (NK) against the human erythroleukemic line K 562. […] On the contrary, at doses of 10 and 20 mcg/ml resveratrol induces an inhibition of NK activity.

[8] = tested on: human lymphocytes; experiment: expression of surface antigens CD16, CD4 and CD95 in lymphocytes; assay type: cell-based; conditions: dose of 5 mcg/ml
Protocol: as §1
PBMC have been resuspended in a concentration of 1×10^6/ml and incubated for different periods of time with various doses of resveratrol. The cells have then been incubated with one or more fluorescent monoclonal antibodies, each being specific for a surface antigen (CD4, CD8, CD16 and CD95), and they have undergone a cytofluorometric analysis using a cytofluorometer FACscan (BD).
as §4

[9] = tested on: MT-2 cells; experiment: cytotoxic activity of T lymphocytes (CTL), 51Cr release; assay type: cell-based, human; conditions: 5 days
Protocol: Mononucleated cells of human peripheral blood (PBMC) deriving from healthy subjects have been obtained by separation on gradient (Ficoll-Hypaque) of cells deriving from buffy coat. […] Mononucleated cells of human peripheral blood (PBMC) have been incubated with resveratrol in a concentration of 0.625, 1.25, 2.5, 5 and 10 mcg/ml in presence of MT-2 cells (line of human T cells deriving from blood of umbilical cord infected with HTLV1) for 5 days at 37° C. At the end of the incubation the cells have been tested for their cytotoxic activity against said MT-2 cells.

[10] = tested on: PBMC activated with anti-CD3+ anti-CD28; experiment: percentage of CD4+ and CD8+ T lymphocytes in activated PBMC; assay type: cell-based, human
Protocol: Mononucleated cells of human peripheral blood (PBMC) deriving from healthy subjects have been obtained by separation on gradient (Ficoll-Hypaque) of cells deriving from buffy coat. PBMC have been resuspended in a concentration of 1×10^6/ml and incubated for different periods of time with various doses of resveratrol.

[11] = tested on: platelet aggregation; conditions: cited from earlier work
[12] = tested on: cyclo-oxygenase; conditions: cited from earlier work
[13] = tested on: line MCF-7 derived from mammary adenocarcinoma; conditions: in vitro; cited from earlier work
[14] = tested on: line HL60 (human promyelocytic acute leukemia); conditions: cited from earlier work
[15] = tested on: skin cancer induced by carcinogenic substances; conditions: in vivo, murine model of skin cancer; cited from earlier work

halving time in culture medium [1]: 38 h
amount still present at the end of the test [1]: about 25%
Structure (SMILES): Oc1ccc(/C=C\c2cc(O)cc(O)c2)cc1 [cis-resveratrol]

Structure (SMILES): Oc1ccc(C=Cc2cc(O)cc(O)c2)cc1 [resveratrol]
percentage of CD8+ cells which can synthesize all tested cytokines ([2]; dose of 5 and more significantly 10 mcg/ml): inhibition
activity peak, CD8+ cells positive for IFN-γ ([2]; dose of peak stimulation, FIG. 1A): 1.25 to 2.5 µg/mL
activity peak, CD8+ cells positive for IL2 ([2]; dose of peak stimulation, FIG. 1B): 0.625 µg/mL
activity peak, CD8+ cells positive for IL4 ([2]; dose of peak stimulation, FIG. 1C): 2.5 µg/mL
percentage of T cells CD8+ positive for intracellular IFN-γ, IL2 and IL4 ([2]; dose range 0.625-2.5 mcg/ml, with respect to controls): significant increase
peak of stimulating activity, CD4+ cells positive for IFN-γ ([3]; FIG. 2A): 2.5 µg/mL
peak of stimulating activity, CD4+ cells positive for IL2 ([3]; FIG. 2B): 1.25 to 2.5 µg/mL
peak of stimulating activity, CD4+ cells positive for IL4 ([3]; FIG. 2C): 0.625 µg/mL
cell proliferation ([4]; dose range of 2.5-10 mcg/ml, FIGS. 3A and 3B): dose-dependent inhibition
number of treated cells ([4]; doses of 0.625 and 1.25 mcg/ml, FIG. 3A): statistically significant increase
ability to synthesize DNA ([4]; doses of 0.625 and 1.25 mcg/ml, FIG. 3B): statistically significant increase
percentage of apoptotic cells ([5]; dose range of 2.5-10 mcg/ml): dose-dependent increase
apoptosis of activated cells ([5]; doses of 0.625 and 1.25 mcg/ml): does not have any effect
mortality of activated cells ([6]; dose range of 2.5-10 mcg/ml): dose-dependent increase
mortality of activated cells ([6]; doses of 0.625 and 1.25 mcg/ml): does not have any effect
NK activity ([7]; dose range of 0.625-5 mcg/ml): statistically significant increase
NK activity ([7]; doses of 10 and 20 mcg/ml): inhibition
cells which can co-express CD16 and CD95 (CD16+/CD95+ cells) [8]: significant increase
percentage of CD4+/CD95+ cells [8]: does not induce any variation
cytotoxic activity of T lymphocytes ([9]; dose of 0.625 mcg/ml): increase
number of blast cells ([9]; dose of 0.625 mcg/ml): increase
cytotoxic activity of T lymphocytes ([9]; dose range of 2.5-10 mcg/ml): inhibition
number of blast cells ([9]; dose range of 2.5-10 mcg/ml): inhibition
percentage of CD4+ cells ([10]; all tested doses): does not induce any variation
percentage of activated CD8+ cells ([10]; dose range of 2.5-10 mcg/ml): dose-dependent decrease
percentage of activated CD8+ cells ([10]; lower doses (below 2.5 mcg/ml)): does not induce any variation

halving time in culture medium [1]: 28 h
amount still present at the end of the test [1]: not present as such
Structure (SMILES): Oc1ccc(/C=C/c2cc(O)cc(O)c2)cc1 [trans-resveratrol]
platelet aggregation [11]: inhibits
cyclo-oxygenase activity [12]: inhibits
growth of MCF-7 cells [13]: inhibit
cellular cycle of HL60 cells [14]: induce the stop of the cellular cycle in the transition from stage S to stage G2
apoptosis of HL60 cells ([14]; high doses): induce apoptosis
expression of CD95L in HL60 cells ([14]; high doses): regulate the expression of CD95L
tumor genesis [15]: inhibit tumor genesis
